Laboratory results taken from ChEMBL document CHEMBL1201862, “PubChem BioAssay data set” (2004).
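Cells were grown in 96-well plates and exposed to each compound for 48 hours at five concentrations; endpoints were interpolated linearly between bracketing concentrations, or set to the highest concentration if not reached. GI50: concentration for 50% inhibition of growth.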 Calls of active or inactive are those of the source. No stated cut-off is given here; in the data, active = GI50 up to about 1.1 µM and inactive = higher.

Columns and labels:
Experiment in all cases: NCI tumour cell line growth inhibition, 48 h
SN12C = tested on: SN12C
NCI-H522 = tested on: NCI-H522
ACHN = tested on: ACHN
SF-295 = tested on: SF-295
SNB-19 = tested on: SNB-19
TK-10 = tested on: TK-10
786-0 = tested on: 786-0
HOP-92 = tested on: HOP-92
OVCAR-3 = tested on: OVCAR-3
HOP-62 = tested on: HOP-62
UACC-62 = tested on: UACC-62
SK-OV-3 = tested on: SK-OV-3
U-251 = tested on: U-251
CCRF-CEM = tested on: CCRF-CEM
HT-29 = tested on: HT-29
OVCAR-8 = tested on: OVCAR-8
COLO 205 = tested on: COLO 205
RPMI-8226 = tested on: RPMI-8226
IGROV-1 = tested on: IGROV-1

SMILES | GI50 (SN12C) | GI50 (NCI-H522) | GI50 (ACHN) | GI50 (SF-295) | GI50 (SNB-19) | GI50 (TK-10) | GI50 (786-0) | GI50 (HOP-92) | GI50 (OVCAR-3) | GI50 (HOP-62) | GI50 (UACC-62) | GI50 (SK-OV-3) | GI50 (U-251) | GI50 (CCRF-CEM) | GI50 (HT-29) | GI50 (OVCAR-8) | GI50 (COLO 205) | GI50 (RPMI-8226) | GI50 (IGROV-1)
CCN(CC)CC(C)(C)C(=O)/C=C/c1ccc(C)cc1 | 7.64 µM (inactive) | 3.03 µM (inactive) | 14.6 µM (inactive) | 13.2 µM (inactive) | 11.8 µM (inactive) | 14.5 µM (inactive) | 10.7 µM (inactive) | 1.91 µM (inactive) | 9.14 µM (inactive) | 18.5 µM (inactive) | 13.6 µM (inactive) | 22.6 µM (inactive) | 15.3 µM (inactive) | 2.82 µM (inactive) | 3.86 µM (inactive) | 11.8 µM (inactive) | – | – | –
CCCCc1ccc(-n2c3nc(=O)n(C)c(=O)c-3nc3ccccc32)cc1 | 7.35 µM (inactive) | 7.6 µM (inactive) | 10.7 µM (inactive) | 11.1 µM (inactive) | 8.24 µM (inactive) | 13.9 µM (inactive) | 16.3 µM (inactive) | – | 2.86 µM (inactive) | 18.2 µM (inactive) | 1.77 µM (inactive) | 37.7 µM (inactive) | 10.6 µM (inactive) | 13.5 µM (inactive) | 3.11 µM (inactive) | 7.57 µM (inactive) | 3.09 µM (inactive) | 13.7 µM (inactive) | 13.6 µM (inactive)
Cc1ccccc1NC(=O)C(=O)C1CN(c2ccccc2)N=C1N (centres undefined) | > 100 µM (inactive) | > 100 µM (inactive) | – | – | > 100 µM (inactive) | – | > 100 µM (inactive) | > 100 µM (inactive) | > 100 µM (inactive) | > 100 µM (inactive) | – | > 100 µM (inactive) | > 100 µM (inactive) | > 100 µM (inactive) | > 100 µM (inactive) | > 100 µM (inactive) | – | – | > 100 µM (inactive)
Cn1cnc([N+](=O)[O-])c1Sc1nc2cc([N+](=O)[O-])ccc2[nH]1 | > 10 µM (inactive) | – | 36.5 µM (inactive) | > 100 µM (inactive) | 42.3 µM (inactive) | 19.5 µM (inactive) | 42.4 µM (inactive) | 17.3 µM (inactive) | 37.9 µM (inactive) | > 100 µM (inactive) | 11.9 µM (inactive) | 22 µM (inactive) | 27 µM (inactive) | 15.4 µM (inactive) | 36.4 µM (inactive) | 14.7 µM (inactive) | 10.4 µM (inactive) | 21.6 µM (inactive) | 19 µM (inactive)
CCCCC1=CSC(c2ccccc2)=C(c2ccccc2)S1 | 97.5 µM (inactive) | – | – | 36.5 µM (inactive) | 43.3 µM (inactive) | > 100 µM (inactive) | 87.5 µM (inactive) | 11.7 µM (inactive) | 60.4 µM (inactive) | – | 40.5 µM (inactive) | > 100 µM (inactive) | 30.9 µM (inactive) | 21.6 µM (inactive) | 33.6 µM (inactive) | 73.8 µM (inactive) | > 100 µM (inactive) | 9.23 µM (inactive) | > 100 µM (inactive)
N#CNC1=NC(CCCC(=O)Nc2cccc([N+](=O)[O-])c2)=C(c2nc3ccccc3[nH]2)C(N)N1 (centres undefined) | > 100 µM (inactive) | > 100 µM (inactive) | > 100 µM (inactive) | > 100 µM (inactive) | > 100 µM (inactive) | > 100 µM (inactive) | > 100 µM (inactive) | – | > 100 µM (inactive) | > 100 µM (inactive) | > 100 µM (inactive) | > 100 µM (inactive) | – | > 100 µM (inactive) | > 100 µM (inactive) | > 100 µM (inactive) | > 100 µM (inactive) | > 100 µM (inactive) | > 100 µM (inactive)
CC(C(=O)C(C)O[Si](c1ccccc1)(c1ccccc1)C(C)(C)C)=P(c1ccccc1)(c1ccccc1)c1ccccc1 (centres undefined) | 3.77 µM (inactive) | – | 4.08 µM (inactive) | 3.33 µM (inactive) | 3.96 µM (inactive) | 4.76 µM (inactive) | 4.06 µM (inactive) | 2.21 µM (inactive) | 2.9 µM (inactive) | 3.09 µM (inactive) | 3.94 µM (inactive) | 2.42 µM (inactive) | 4.01 µM (inactive) | 3.5 µM (inactive) | 3.08 µM (inactive) | 3.82 µM (inactive) | 1.8 µM (inactive) | 2.34 µM (inactive) | 3.7 µM (inactive)
CCCCN(CCCC)C(=O)C(=O)C(C#N)c1ccc(C)cc1 (centres undefined) | > 100 µM (inactive) | > 100 µM (inactive) | > 100 µM (inactive) | > 100 µM (inactive) | > 100 µM (inactive) | > 100 µM (inactive) | > 100 µM (inactive) | > 100 µM (inactive) | > 100 µM (inactive) | > 100 µM (inactive) | > 100 µM (inactive) | – | > 100 µM (inactive) | > 100 µM (inactive) | > 100 µM (inactive) | > 100 µM (inactive) | – | > 100 µM (inactive) | > 100 µM (inactive)
Cc1cc(Cl)ccc1/N=C1/NC(=O)C(CC(=O)Nc2cccc(C)c2C)S1 (centres undefined) | 25.9 µM (inactive) | – | 26 µM (inactive) | 28 µM (inactive) | 26.8 µM (inactive) | 39.3 µM (inactive) | 20.8 µM (inactive) | 1.41 µM (inactive) | 31.2 µM (inactive) | 24 µM (inactive) | 25.9 µM (inactive) | 30.4 µM (inactive) | 26.2 µM (inactive) | 22.2 µM (inactive) | 37.8 µM (inactive) | 26.5 µM (inactive) | 24.3 µM (inactive) | 19.7 µM (inactive) | 34.8 µM (inactive)
CC1CC2=Nc3ccccc3NC(c3ccccc3)C2=C(O)O1 (centres undefined) | > 100 µM (inactive) | 47.1 µM (inactive) | > 100 µM (inactive) | – | > 100 µM (inactive) | > 100 µM (inactive) | > 100 µM (inactive) | – | > 100 µM (inactive) | > 100 µM (inactive) | 93.8 µM (inactive) | > 100 µM (inactive) | > 100 µM (inactive) | > 100 µM (inactive) | > 100 µM (inactive) | > 100 µM (inactive) | > 100 µM (inactive) | – | > 100 µM (inactive)
COc1ccc(NC(=O)CC(=O)n2nc(C)c(/N=N/c3ccccc3C(=O)O)c2C)cc1 | > 100 µM (inactive) | > 100 µM (inactive) | – | > 100 µM (inactive) | 80.7 µM (inactive) | > 100 µM (inactive) | 77.3 µM (inactive) | – | > 100 µM (inactive) | > 100 µM (inactive) | > 100 µM (inactive) | 40.3 µM (inactive) | > 100 µM (inactive) | > 100 µM (inactive) | > 100 µM (inactive) | > 100 µM (inactive) | > 100 µM (inactive) | > 100 µM (inactive) | > 100 µM (inactive)
Cn1nc(C(=O)N2CC(CCl)c3c2cc(N)c2ccccc32)cc1NC(=O)Nc1cc(C(=O)N2CC(CCl)c3c2cc(N)c2ccccc32)nn1C (centres undefined) | 0.0323 µM (active) | – | 0.508 µM (active) | 1.55 µM (inactive) | 0.0621 µM (active) | > 100 µM (inactive) | 0.0547 µM (active) | – | 0.201 µM (active) | 0.682 µM (active) | 0.107 µM (active) | 0.3 µM (active) | 0.0212 µM (active) | < 0.01 µM (active) | 0.0215 µM (active) | 0.249 µM (active) | 0.163 µM (active) | 3.3 µM (inactive) | –
COC(=O)/C(C#N)=C1\CCC(O)N1C (centres undefined) | > 100 µM (inactive) | > 100 µM (inactive) | > 100 µM (inactive) | > 100 µM (inactive) | > 100 µM (inactive) | > 100 µM (inactive) | > 100 µM (inactive) | – | > 100 µM (inactive) | > 100 µM (inactive) | > 100 µM (inactive) | > 100 µM (inactive) | > 100 µM (inactive) | > 100 µM (inactive) | > 100 µM (inactive) | > 100 µM (inactive) | – | > 100 µM (inactive) | > 100 µM (inactive)
CC(=O)NC1=C(NCC(C)(C)C)C(=O)c2ccccc2C1=O | > 100 µM (inactive) | 18.9 µM (inactive) | 26.9 µM (inactive) | > 100 µM (inactive) | > 100 µM (inactive) | > 100 µM (inactive) | > 100 µM (inactive) | – | 55.2 µM (inactive) | > 100 µM (inactive) | 39 µM (inactive) | > 100 µM (inactive) | 65 µM (inactive) | 38.5 µM (inactive) | > 100 µM (inactive) | 70.6 µM (inactive) | 39.3 µM (inactive) | – | > 100 µM (inactive)
Cc1ccc(C2=C(c3ccccc3)C(Br)(c3ccc(C)cc3)C(c3ccccc3)=C2c2ccc(C)cc2)cc1 | > 100 µM (inactive) | – | > 100 µM (inactive) | > 100 µM (inactive) | > 100 µM (inactive) | > 100 µM (inactive) | > 100 µM (inactive) | > 100 µM (inactive) | > 100 µM (inactive) | > 100 µM (inactive) | > 100 µM (inactive) | > 100 µM (inactive) | > 100 µM (inactive) | > 100 µM (inactive) | – | > 100 µM (inactive) | > 100 µM (inactive) | > 100 µM (inactive) | > 100 µM (inactive)
CC1C=CC(=O)C(n2cc(F)c(=O)[nH]c2=O)O1 (centres undefined) | 18.4 µM (inactive) | – | 20 µM (inactive) | > 10 µM (inactive) | 22.2 µM (inactive) | 18.7 µM (inactive) | 16 µM (inactive) | 17.5 µM (inactive) | 17.3 µM (inactive) | 20.8 µM (inactive) | 16.2 µM (inactive) | 27.7 µM (inactive) | 15.7 µM (inactive) | 8.89 µM (inactive) | 18.2 µM (inactive) | 22.4 µM (inactive) | 20.1 µM (inactive) | 14.4 µM (inactive) | 20.8 µM (inactive)
